According to patent US7001619B2, “Hepatocurative effect of emblica officinalis against CYP 450 bio-activation hepatotoxicity of drugs” (Council of Scientific and Industrial Research, priority 2002, dated 2006):

Tests used:
[1] = system: hepatotoxicity produced by galactosamine; test: Hepatotoxicity produced by galactosamine (not dependent on CYP 450 bioactivation), LDH and GPT leakage; assay type: in vivo; details: galactosamine alone
[2] = system: hepatotoxicity produced by paracetamol; test: Hepatotoxicity produced by paracetamol (CYP 450 bioactivation), LDH and GPT release in serum; assay type: in vivo; details: paracetamol alone
CYP 450 1A1 = biological target: T1, CYP 450 1A1 (Homo sapiens, UniProt P04798); details: cited from earlier work
T1 sequence (P04798 1-512): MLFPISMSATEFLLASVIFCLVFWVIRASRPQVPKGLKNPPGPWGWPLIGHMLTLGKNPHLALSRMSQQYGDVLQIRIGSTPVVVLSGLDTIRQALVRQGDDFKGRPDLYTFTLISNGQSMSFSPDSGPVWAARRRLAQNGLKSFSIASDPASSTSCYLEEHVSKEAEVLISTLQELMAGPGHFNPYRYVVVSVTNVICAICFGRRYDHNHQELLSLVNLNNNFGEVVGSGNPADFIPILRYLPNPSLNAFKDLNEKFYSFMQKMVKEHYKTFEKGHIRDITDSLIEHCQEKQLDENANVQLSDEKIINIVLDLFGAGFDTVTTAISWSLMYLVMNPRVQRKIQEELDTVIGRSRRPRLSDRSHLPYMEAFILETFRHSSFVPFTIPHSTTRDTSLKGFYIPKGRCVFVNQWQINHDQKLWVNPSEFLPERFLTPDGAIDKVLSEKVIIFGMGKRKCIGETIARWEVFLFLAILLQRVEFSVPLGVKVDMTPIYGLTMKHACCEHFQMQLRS

Question: For `N[C@H]1C(O)O[C@H](CO)[C@H](O)[C@@H]1O` (stereo partly drawn) [galactosamine], which Toxicity [1] is on record?
Answer: The Toxicity was 93%.

Question: With `CC(=O)Nc1ccc(O)cc1` [paracetamol] as the compound, how does the Toxicity [2] read?
Answer: The Toxicity was 93%.

Question: For `O=C(/C=C/C=C/c1ccc2c(c1)OCO2)N1CCCCC1` [piperine], which “inhibition of CYP 450 1A1 (in words)” value (CYP 450 1A1) is on record?
Answer: Its value is “specific inhibitor of CYP 450 1A1”.
